US8242086B2, “Methods and compositions for treating disorders caused by a deficiency in a gene product of a CLN gene” (Duke University, priority 2008, dated 2012)
“Also recorded” adds a separate entry of the source.

What was measured:
wild-type CLN3p = target: T1, wild-type CLN3p (Homo sapiens, UniProt Q13286); test: Protein-lipid overlay assay, wild-type CLN3p; type: binding
T1 construct: expressed in transfected cells; host or cells: fibroblasts overexpressing CLN3p (AC1 cells)
T1 sequence (Q13286 1-438): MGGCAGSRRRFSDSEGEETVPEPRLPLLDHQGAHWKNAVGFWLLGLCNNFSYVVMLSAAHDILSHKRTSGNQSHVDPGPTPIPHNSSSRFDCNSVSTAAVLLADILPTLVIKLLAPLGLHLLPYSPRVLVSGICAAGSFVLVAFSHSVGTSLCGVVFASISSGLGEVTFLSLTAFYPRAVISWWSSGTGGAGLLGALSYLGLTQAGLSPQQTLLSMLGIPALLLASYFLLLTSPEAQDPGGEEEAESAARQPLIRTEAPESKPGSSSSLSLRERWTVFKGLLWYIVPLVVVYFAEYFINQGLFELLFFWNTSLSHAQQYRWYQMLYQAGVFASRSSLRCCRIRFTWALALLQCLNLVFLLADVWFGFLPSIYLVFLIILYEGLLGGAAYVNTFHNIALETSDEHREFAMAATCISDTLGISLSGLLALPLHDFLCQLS
Description: (§1) Protein-lipid overlay assay. Membrane arrays (SPHINGOSTRIPS (Echelon Research Laboratories, Salt Lake City, Utah), or lipids were spotted on nitrocellulose membranes and dried for at least one hour. Membranes were blocked with 3% (wt/vol) Fatty Acid Free or FFA-BSA (Sigma-Aldrich, St. Louis, Mo.) in Tris-Buffered Saline Tween-20 (TBST) [150 mM NaCl/10 mM Tris.HCl (pH 8.0), and 0.1% (vol/vol) Tween-20] for 1 h at RT. Blocked membranes were incubated for 8 h at 4° C. with 2 mg/ml of total cell lysate.
(§2) Fibroblasts overexpressing CLN3p (AC1 cells) and JNCL fibroblasts were used for the GalCer-CLN3 binding assay. The membranes were then washed five times for 5 min each with TBST. After washing, membranes were incubated with anti-CLN3, CLN1, CLN2, CLN6 or CLN8-antibodies overnight at 1:1000 dilution, followed by additional washing and incubation with horseradish peroxidase-conjugated anti-rabbit IgG goat antibody for 1 h at RT. After a final washing, enhanced chemiluminescence was used to detect binding of NCL proteins to sphingolipids. Intensity values were computed with an ImageJ software program.
Binding of CLN3 to GalCer and sulfatide. Membranes impregnated with sphingolipids were overlaid with protein cell lysates from CLN3-overexpressing and JNCL cells. Anti-CLN3 antibody was used to evaluate binding. […] The signal for GalCer-wild-type CLN3p binding was weaker because the more polar sulfatide competes with the less polar GalCer for binding to wild-type CLN3p.

mutant CLN3p = test: Protein-lipid overlay assay, mutant CLN3p (JNCL cell lysate); type: binding, human; settings: lysate of JNCL cells, anti-CLN3 antibody
Description: as §1, §2
Binding of CLN3 to GalCer and sulfatide. Membranes impregnated with sphingolipids were overlaid with protein cell lysates from CLN3-overexpressing and JNCL cells. Anti-CLN3 antibody was used to evaluate binding. […]

CLN8 protein = test: Protein-lipid overlay assay, CLN8 protein; type: binding; settings: lysates from normal cells, custom made sphingostrips
Description: as §1, §2
CLN1, CLN2, CLN6, CLN8 and CLN9 proteins also bind to lipids. […]

[1] = system: CLN3-deficient (JNCL) cells; test: Growth of CLN3-deficient (JNCL) cells treated with GalCer, Trypan blue dye exclusion; type: cell-based, human
Description: Cell Culture. Lymphoblasts are grown at 37° C. and in 5% CO2 in RPMI 1640 medium (Sigma-Aldrich, St Louis, Mo.)/10% fetal bovine serum and 1% antibiotic/antimycotic. Immortalized lymphoblast cell lines originally obtained from JNCL and other NCL patients and normal donors, were used for all experiments. Fibroblasts from normal and mnd (CLN8-deficient) mice were also used. All JNCL lymphoblasts used are homozygous for the 1.02 kb deletion in the genomic DNA.
Treatment of CLN3-deficient (JNCL) cells with GalCer increases growth rates. 0.1 million CLN3−/− cells were plated per well in 6 well plates. harvested and counted at 24, 48, 72 and 96 hours. Numbers of viable cells were determined with Trypan blue dye exclusion.

CLN3 knockdown NT2 cells [2] = test: Cell proliferation rate in CLN3 knockdown NT2 cells, Trypan blue dye exclusion; type: cell-based, human; settings: GalCer 50 ng/ml, 3 days post-transfection
Description: (§3) Cell Culture and Cell Treatment. NT2 neuronal precursor cells (ATCC cat no. CRL 1973) were grown in DMEM supplemented with 1% sodium pyruvate, L-glutamine and antibiotics and incubated in 37 C and 5% CO2 for 3 days.
(§4) siRNA knockdown of CLN3 in NT2 cells. HS1 siRNA ([…]) for CLN3 knockdown was designed using BLOCK-iT RNA™ Designer (Invitrogen). […] siRNA and scrambled universal negative control siRNA oligonucleotides were transfected into wild type NT2 cells using Lipofectamine RNAiMax™ according to manufacturer's protocol. In brief, […] HS1 RNAi duplex or scrambled siRNA universal negative control were diluted in 50 μl DMEM medium without serum. Lipofectamine™ RNAiMAX was mixed gently before use, then 1 μl was diluted in 50 μl DMEM medium. The diluted RNAi duplexes were combined with the diluted Lipofectamine RNAiMAX and incubated for 10 minutes at room temperature. The RNAi duplex-Lipofectamine™ RNAiMAX complexes were added to cells for a final RNA concentration of 10 nM. […]
Determination of cell proliferation rate in CLN3 knockdown NT2 cells. 4×10^5 cells transfected with CLN3 siRNA or scrambled siRNA, and treated or not treated with 50 ng/ml GalCer, were seeded and counted with Trypan blue dye exclusion. […]
NT2 cell proliferation and apoptosis rates. An equal number of NT2 cells was initially seeded and cell number determined at different time points with Trypan blue dye exclusion. […]

CLN3 knockdown NT2 cells [3] = test: Cell apoptosis rate in CLN3 knockdown NT2 cells, propidium iodide; type: cell-based, human; settings: GalCer 50 ng/ml, 3 days after transfection
Description: as §3
as §4, with “temperature.” for “temperature. The RNAi duplex-Lipofectamine™ RNAiMAX complexes were added to cells for a final RNA concentration of 10 nM.”
Determination of cell apoptosis rate in CLN3 knockdown NT2 cells. 10^6 cells transfected with CLN3 siRNA or scrambled siRNA, either treated with 50 ng/ml of GalCer (Avanti Polar Lipids, inc.) or solvent, are suspended in 100 μl PBS, incubated with 100 μl/0.5 mg/ml PI, washed, placed on slides and viewed using a fluorescence microscope. […] Cells in three fields of vision were counted. Percentage of red staining-apoptotic cells/total cells was determined.

[4] = system: CLN3-deficient human NT2 neuronal precursor cells; test: Lipid raft GalCer in CLN3-deficient NT2 cells after GalCer supplementation; type: cell-based; settings: exogenous GalCer supplementation
[5] = investigated as a cancer therapy; cited from earlier work

## galactosylceramide [GalCer]
wild-type CLN3p; lysate of CLN3-overexpressing cells, anti-CLN3 antibody
  binding of wild-type CLN3p to membrane spots impregnated with the lipid: bind strongly
wild-type CLN3p; sulfatide omitted, dose dependent
  binding of CLN3p to GalCer when sulfatide was omitted from the membrane: stronger binding
Mutant CLN3p
  binding of mutant CLN3 to membrane spots impregnated with the lipid: failed to do so
CLN8 protein
  binding of CLN8 protein to lipid: bind
[1]; GalCer 50 ng/ml, counted at 24, 48, 72 and 96 hours
  growth of JNCL cells: restored growth
[1]; GalCer 100 ng/ml (doubled concentration)
  growth of JNCL cells: no effect
CLN3 knockdown NT2 cells [2]
  growth of CLN3-deficient NT2 cells: normalized growth; also recorded: corrects growth
CLN3 knockdown NT2 cells [3]
  cell death (apoptosis) of CLN3-deficient NT2 cells: significantly reduces cell death
[4]
  GalCer in lipid rafts of CLN3-deficient NT2 cells: normalizes GalCer in lipid rafts
[5]
  safety in humans: documented to be safe in humans
